Assay results as given in ChEMBL document CHEMBL4483862, “Open-source discovery of chemical leads for next-generation chemoprotective antimalarials” (2018).

System: Plasmodium berghei
Assay: Luciferase/luciferin-expressing antifolate-resistant parasites were used to infect a culture of HepG2 cells that were pre-incubated with compounds. Infected hepatocytes emit light due to the luciferase reaction. Assay results are presented as the percent inhibition of light emission compared to control. […]
Assay type: functional
Settings: sporozoite; for IC90: read-out: LUCIFERASE INFECTION ASSAY - IC90

Compound	IC90	also measured
Cc1cc(NC(=O)c2cccc(S(=O)(=O)N3c4ccccc4CC3C)c2)no1 (stereo not given)	1.24 µM	IC50 (PBLUC_HILL_SLOPE 18.4, PBLUC_R_SQUARED 0.605, read-out: LUCIFERASE INFECTION ASSAY - IC50): 1.1 µM
CCOc1ccc(C(=O)NCc2ccco2)cc1Cl	> 11.8 µM	IC50 (PBLUC_HILL_SLOPE 19.7, PBLUC_R_SQUARED 0.665, read-out: LUCIFERASE INFECTION ASSAY - IC50): 11.5 µM
CCCCn1c(=O)[nH]c(=O)c2c1nc(-c1ccc(C)c([N+](=O)[O-])c1)n2CC	3.73 µM	IC50 (PBLUC_HILL_SLOPE 20.6, PBLUC_R_SQUARED 0.559, read-out: LUCIFERASE INFECTION ASSAY - IC50): 3.35 µM
Clc1ccc(CN=C(Nc2ccccc2)NC2CCCCC2)cc1	9.45 µM	IC50 (PBLUC_HILL_SLOPE 18.9, PBLUC_R_SQUARED 0.472, read-out: LUCIFERASE INFECTION ASSAY - IC50): 8.42 µM
CN(C)c1nn(C(=O)Nc2cccc(C(F)(F)F)c2)cc1-c1ccccc1	8.43 µM	IC50 (PBLUC_HILL_SLOPE 19.3, PBLUC_R_SQUARED 0.463, read-out: LUCIFERASE INFECTION ASSAY - IC50): 7.52 µM
O=C(NC1CCCC1)c1ccc(-c2cn3c(-c4ccc(CO)cc4)cnc3cn2)cc1	7.79 µM	IC50 (PBLUC_HILL_SLOPE 20, PBLUC_R_SQUARED 0.468, read-out: LUCIFERASE INFECTION ASSAY - IC50): 6.98 µM
COc1cccc(-c2cn3c(-c4cccc(O)c4)cnc3cn2)c1F	3.69 µM	IC50 (PBLUC_HILL_SLOPE 18.9, PBLUC_R_SQUARED 0.523, read-out: LUCIFERASE INFECTION ASSAY - IC50): 3.28 µM
Cc1cc(-c2cn3c(-c4ccncc4)cnc3cn2)cc(C)c1O	10 µM	IC50 (PBLUC_HILL_SLOPE 18.9, PBLUC_R_SQUARED 0.365, read-out: LUCIFERASE INFECTION ASSAY - IC50): 8.93 µM
Nc1nc(Sc2ncnc3sccc23)nc2sccc12	8.89 µM	IC50 (PBLUC_HILL_SLOPE 20, PBLUC_R_SQUARED 0.321, read-out: LUCIFERASE INFECTION ASSAY - IC50): 7.96 µM
COc1cc(/C=C/C(=O)c2ccc(C#N)cc2)cc(Br)c1OCC(=O)N(C)C	> 10 µM	IC50 (PBLUC_HILL_SLOPE 20.1, PBLUC_R_SQUARED 0.243, read-out: LUCIFERASE INFECTION ASSAY - IC50): 9.62 µM
CC(C)(C)c1ccc(C2Nc3ccccc3C(=O)N2C2CC2)cc1 (stereo not given)	9.91 µM	IC50 (PBLUC_HILL_SLOPE 18.7, PBLUC_R_SQUARED 0.174, read-out: LUCIFERASE INFECTION ASSAY - IC50): 8.81 µM
COc1cncc(-c2cncc(Nc3cccc(Cl)c3)c2)c1	9.85 µM	IC50 (PBLUC_HILL_SLOPE 20.7, PBLUC_R_SQUARED 0.436, read-out: LUCIFERASE INFECTION ASSAY - IC50): 8.86 µM
COc1cccc(N(C)S(=O)(=O)c2cccc3cc(C)cnc23)n1	3.82 µM	IC50 (PBLUC_HILL_SLOPE 18.8, PBLUC_R_SQUARED 0.316, read-out: LUCIFERASE INFECTION ASSAY - IC50): 3.4 µM
CN(C)c1cccc(-c2ccc3ncc(-c4ccoc4)n3n2)c1	9.49 µM	IC50 (PBLUC_HILL_SLOPE 19.8, PBLUC_R_SQUARED 0.226, read-out: LUCIFERASE INFECTION ASSAY - IC50): 8.49 µM
CC(=O)N(C)c1cccc(-c2cc3c(Nc4cccc(C(C)C)c4)nccc3n2C)c1	3.76 µM	IC50 (PBLUC_HILL_SLOPE 18.8, PBLUC_R_SQUARED 0.545, read-out: LUCIFERASE INFECTION ASSAY - IC50): 3.34 µM
O=C(Nc1nn[nH]n1)c1ccc(S(=O)(=O)N2CCCCCC2)cc1	9.99 µM	IC50 (PBLUC_HILL_SLOPE 18.6, PBLUC_R_SQUARED 0.124, read-out: LUCIFERASE INFECTION ASSAY - IC50): 8.88 µM
O=C(NC(c1ccccc1)C1CC1)C1=NN(c2ccccc2)C(=O)CN1 (stereo not given)	9.85 µM	IC50 (PBLUC_HILL_SLOPE 18.7, PBLUC_R_SQUARED 0.556, read-out: LUCIFERASE INFECTION ASSAY - IC50): 8.76 µM
NC(=O)c1ccc(-c2cc(-c3ccccc3Oc3ccccc3)cnc2N)cc1	2.98 µM	IC50 (PBLUC_HILL_SLOPE 21, PBLUC_R_SQUARED 0.292, read-out: LUCIFERASE INFECTION ASSAY - IC50): 2.68 µM
CCOc1cccc(-c2cn3c(-c4ccc(C(=O)N5CCN(C)CC5)cc4)cnc3cn2)c1	7.28 µM	IC50 (PBLUC_HILL_SLOPE 18.7, PBLUC_R_SQUARED 0.82, read-out: LUCIFERASE INFECTION ASSAY - IC50): 6.48 µM
Cc1ccc(NS(=O)(=O)c2ccc(NN=CC3C(=O)N(c4cccc(C(F)(F)F)c4)C(=O)c4ccccc43)c([N+](=O)[O-])c2)c(C)c1 (stereo not given)	> 10 µM	IC50 (PBLUC_HILL_SLOPE 19.2, PBLUC_R_SQUARED 0.393, read-out: LUCIFERASE INFECTION ASSAY - IC50): 9.75 µM

Compound	IC90	also measured
CC(OC(=O)c1cccc(NC(=O)c2cccs2)c1)C(=O)C12CC3CC(CC(C3)C1)C2 (stereo not given)	3.57 µM	IC50 (PBLUC_HILL_SLOPE 20.8, PBLUC_R_SQUARED 0.61, read-out: LUCIFERASE INFECTION ASSAY - IC50): 3.22 µM
CCOC(=O)C(c1ccc(Cl)cc1)N1CCN(C(=O)/C=C/c2ccc(OC)c(OC)c2)CC1 (stereo not given)	3.62 µM	IC50 (PBLUC_HILL_SLOPE 18.4, PBLUC_R_SQUARED 0.744, read-out: LUCIFERASE INFECTION ASSAY - IC50): 3.21 µM
Cc1ccnc2nc(C(=O)Nc3cc(C(F)(F)F)ccc3N3CCCCCC3)nn12	0.413 µM	IC50 (PBLUC_HILL_SLOPE 19, PBLUC_R_SQUARED 0.744, read-out: LUCIFERASE INFECTION ASSAY - IC50): 0.368 µM
C/C(=N\NC(=S)Nc1cccc(C(F)(F)F)c1)c1cc(Cl)cc(Cl)c1O	> 7.82 µM	IC50 (PBLUC_HILL_SLOPE 20.9, PBLUC_R_SQUARED 0.295, read-out: LUCIFERASE INFECTION ASSAY - IC50): 7.78 µM
CC(C)(C)c1ccccc1NC(=O)c1csc(N2CCN(CCc3ccccc3)C2=O)n1	> 10 µM	IC50 (PBLUC_HILL_SLOPE 20.4, PBLUC_R_SQUARED 0.59, read-out: LUCIFERASE INFECTION ASSAY - IC50): 9.01 µM
Cc1cnc(NC(=O)C2CCN(S(=O)(=O)c3ccc(Cl)cc3)CC2)s1	3.13 µM	IC50 (PBLUC_HILL_SLOPE 19, PBLUC_R_SQUARED 0.695, read-out: LUCIFERASE INFECTION ASSAY - IC50): 2.79 µM
CC(OC(=O)c1ccccc1Nc1ccc(F)cc1)C(=O)N1CCCC1 (stereo not given)	9.97 µM	IC50 (PBLUC_HILL_SLOPE 20.8, 17.7, PBLUC_R_SQUARED 0.125, 0.439, read-out: LUCIFERASE INFECTION ASSAY - IC50): 8.95 µM
CCN1CCN(c2ccc(NC(=O)c3csc(COc4ccc(F)cc4)n3)c(C)c2)CC1	4.43 µM	IC50 (PBLUC_HILL_SLOPE 19.9, PBLUC_R_SQUARED 0.58, read-out: LUCIFERASE INFECTION ASSAY - IC50): 3.97 µM
CC(C)N(C(=O)COC(=O)c1ccccc1-c1nc2ccccc2s1)c1ccccc1	> 10 µM	IC50 (PBLUC_HILL_SLOPE 20.1, PBLUC_R_SQUARED 0.325, read-out: LUCIFERASE INFECTION ASSAY - IC50): 9.13 µM
COc1ccc(-c2cnc3cnc(-c4cccc(C(=O)NCCO)c4)cn23)cc1	8.22 µM	IC50 (PBLUC_HILL_SLOPE 19.3, PBLUC_R_SQUARED 0.197, read-out: LUCIFERASE INFECTION ASSAY - IC50): 7.33 µM
Fc1ccc(COc2ccc3ccccc3c2CNCc2ccccn2)cc1	> 8.86 µM	IC50 (PBLUC_HILL_SLOPE 18.6, PBLUC_R_SQUARED 0.616, read-out: LUCIFERASE INFECTION ASSAY - IC50): 8.21 µM
O=C(NCC(=O)N1CCCC1)c1cccc2c3c([nH]c12)CCCCC3	3.72 µM	IC50 (PBLUC_HILL_SLOPE 19.4, PBLUC_R_SQUARED 0.17, read-out: LUCIFERASE INFECTION ASSAY - IC50): 3.32 µM
CC/N=c1\scc(-c2ccc(Cl)cc2)n1/N=C/c1ccc[nH]1	0.416 µM	IC50 (PBLUC_HILL_SLOPE 20.7, PBLUC_R_SQUARED 0.413, read-out: LUCIFERASE INFECTION ASSAY - IC50): 0.374 µM
COc1cc(NC(=O)Nc2ccc3nc(Cc4ccccc4)nn3c2)cc(OC)c1OC	4.31 µM	IC50 (PBLUC_HILL_SLOPE 20.6, PBLUC_R_SQUARED 0.32, read-out: LUCIFERASE INFECTION ASSAY - IC50): 3.87 µM
Cc1nn(Cc2ccccc2Cl)c2sc(C(=O)OC(C)c3nc(=O)c4ccccc4[nH]3)cc12 (stereo not given)	> 10 µM	IC50 (PBLUC_HILL_SLOPE 18.8, PBLUC_R_SQUARED 0.168, read-out: LUCIFERASE INFECTION ASSAY - IC50): 9.99 µM
COc1ccccc1CNC(=O)Nc1nc(C(N)Cc2ccc(C(F)(F)F)cc2)cs1 (stereo not given)	7.12 µM	IC50 (PBLUC_HILL_SLOPE 20.8, PBLUC_R_SQUARED 0.198, read-out: LUCIFERASE INFECTION ASSAY - IC50): 6.4 µM
CCCCOc1ccc(Nc2nc(C(N)Cc3ccc(F)cc3)cs2)nn1 (stereo not given)	> 8.52 µM	IC50 (PBLUC_HILL_SLOPE 19.3, PBLUC_R_SQUARED 0.0642, read-out: LUCIFERASE INFECTION ASSAY - IC50): 8.34 µM
O=C(c1ccc(-n2cnc3ccccc3c2=O)cc1)N1CCN(S(=O)(=O)c2ccc3ccccc3c2)CC1	> 10 µM	IC50 (PBLUC_HILL_SLOPE 18.8, PBLUC_R_SQUARED 0.0296, read-out: LUCIFERASE INFECTION ASSAY - IC50): 9.48 µM
CC1CN(Cc2csc(Nc3ccccc3)n2)CC(C)O1 (stereo not given)	9.23 µM	IC50 (PBLUC_HILL_SLOPE 20.5, 3.85, PBLUC_R_SQUARED 0.234, 0.496, read-out: LUCIFERASE INFECTION ASSAY - IC50): 7.33 µM
O=C1C=CC(=O)N1c1ccccc1Br	> 13.1 µM	IC50 (PBLUC_HILL_SLOPE 18.8, PBLUC_R_SQUARED 0.535, read-out: LUCIFERASE INFECTION ASSAY - IC50): 12.7 µM
